PMC8745710, “Biological Evaluation and Molecular Docking Studies of Novel 1,3,4-Oxadiazole Derivatives of 4,6-Dimethyl-2-sulfanylpyridine-3-carboxamide” (International Journal of Molecular Sciences, 2022)
Blank lines part the entries; values can stand above or below the compound they belong to.

Assays:
Type in all cases: cell-based
[1] = tested on: A549 (pulmonary basal cell alveolar adenocarcinoma); experiment: MTT assay, A549; settings: Homo sapiens, 48 h incubation, read-out: IC50 [µM] ± SD A549
Source text: (§1) The MTT (3-[4,5-dimethylthiazol-2-yl]-2,5-diphenyl tetrazolium bromide) assay was used to determine the cytotoxicity of tested compounds towards different cell lines: normal human dermal fibroblasts (NHDF), kidney epithelial cells (VERO), fibroblasts from Chinese hamster lung (V79) and four human cancer cells: A549 (pulmonary basal cell alveolar adenocarcinoma), MCF-7 (breast adenocarcinoma), LoVo (colon adenocarcinoma), and its drug resistant subline LoVo/Dx. The cell lines used in this study express COX-1 and COX-2. The LoVo line expressed COX-1, the LoVo/Dx subline express both COX-1 and COX-2 [61].
(§2) Each cell line was grown in the culture media recommended by supplier. Before the test they were detached with trypsin/EDTA solution, then to neutralize the effect of Trypsin/EDTA solution, FBS containing medium was used. After centrifugation the cells were stained with 0.4% solution of trypan blue, counted and inspected for viability using microscope. In the end, cells were inserted into 96-well culture plates and incubated in CO2 incubator (37 °C, 24 h). The number of cells was 2 × 10^3 cells per well. The tested compounds with different concentrations (5, 10, 20, 50, 100 µM) were dissolved in DMSO and then added to the cells (the final DMSO concentration was 0.1%). The cultures were incubated for another 48 h. After that time the cells were collected to be used in tests.
(§3) MTT assay was used to find out how tested compounds influence the metabolic activity of investigated cell lines. The cells were incubated with tested compounds. After removing of supernatant, 1 mg/mL of MTT solution in MEM was added to the plate (to each well) and then the plates were incubated at 37 °C for 2 h. The medium was removed again, and formazan crystals were dissolved in isopropanol. A Varioscan LUX microplate reader (Thermo Fisher Scientific, Waltham, MA, USA) was used to measure absorbance at 570 nm.

[2] = tested on: MCF-7 (breast adenocarcinoma); experiment: MTT assay, MCF-7; settings: Homo sapiens, MCF7, 48 h incubation, read-out: IC50 [µM] ± SD MCF-7
Source text: as §1, §2, §3

[3] = tested on: LoVo (colon adenocarcinoma); experiment: MTT assay, LoVo; settings: Homo sapiens, 48 h incubation, read-out: IC50 [µM] ± SD LoVo
Source text: as §1, §2, §3

Compound: Cc1cc(C)c(C(=O)NCc2nn(CC(=O)NN)c(=S)o2)c(S)n1 [Compound 4, N-{[4-(2-hydrazinyl-2-oxoethyl)-5-sulfanylidene-4,5-dihydro-1,3,4-oxadiazol-2-yl]methyl}-4,6-dimethyl-2-sulfanylpyridine-3-carboxamide]
IC50 [1]: 3.84 ± 0.3 µM | IC50 [2]: 9.63 ± 1.66 µM | IC50 [3]: 3.01 ± 0.2 µM

Compound: Cc1cc(C)c(C(=O)NCc2nn(CC(=O)NN=Cc3ccc(F)cc3)c(=S)o2)c(S)n1 [Compound 6, 4,6-Dimethyl-N-{[4-(2-(2-(4-fluorobenzylidene)hydrazinyl)-2-oxoethyl)-5-sulfanylidene-4,5-dihydro-1,3,4-oxadiazole-2-yl]methyl}-2-sulfanylpyridine-3-carboxamide]
IC50 [1]: 4.05 ± 0.26 µM | IC50 [2]: 6.37 ± 0.19 µM | IC50 [3]: 3.2 ± 0.26 µM

Compound: CSc1ccc(/C=N\NC(=O)Cn2nc(CNC(=O)c3c(C)cc(C)nc3S)oc2=S)cc1 [Compound 8, 4,6-Dimethyl-N-{[4-(2-(2-(4-methysulfanylbenzylidene)hydrazinyl)-2-oxoethyl)-5-sulfanylidene-4,5-dihydro-1,3,4-oxadiazole-2-yl]methyl}-2-sulfanylpyridine-3-carboxamide]
IC50 [1]: 4.34 ± 0.56 µM | IC50 [2]: 9.41 ± 4.8 µM | IC50 [3]: 3.6 ± 0.55 µM

Compound: Cc1cc(C)c(C(=O)NCc2nn(CC(=O)NN=Cc3ccc(C#N)cc3)c(=S)o2)c(S)n1 [Compound 9, 4,6-Dimethyl-N-{[4-(2-(2-(4-cyanobenzylidene)hydrazinyl)-2-oxoethyl)-5-sulfanylidene-4,5-dihydro-1,3,4-oxadiazole-2-yl]methyl}-2-sulfanylpyridine-3-carboxamide]
IC50 [1]: 3.36 ± 0.2 µM | IC50 [2]: 8.22 ± 5.98 µM | IC50 [3]: 3.24 ± 0.1 µM

Compound: Cc1cc(C)c(C(=O)NCc2nn(CC(=O)NN=Cc3ccc(Cl)cc3)c(=S)o2)c(S)n1 [Compound 10, 4,6-Dimethyl-N-{[4-(2-(2-(4-chlorobenzylidene)hydrazinyl)-2-oxoethyl)-5-sulfanylidene-4,5-dihydro-1,3,4-oxadiazole-2-yl]methyl}-2-sulfanylpyridine-3-carboxamide]
IC50 [1]: 3.52 ± 0.19 µM | IC50 [2]: 6.19 ± 0.19 µM | IC50 [3]: 3.12 ± 0.23 µM

Compound: Cc1cc(C)c(C(=O)NCc2nn(CC(=O)NN=Cc3cccc(Cl)c3)c(=S)o2)c(S)n1 [Compound 12, 4,6-Dimethyl-N-{[4-(2-(2-(3-chlorobenzylidene)hydrazinyl)-2-oxoethyl)-5-sulfanylidene-4,5-dihydro-1,3,4-oxadiazole-2-yl]methyl}-2-sulfanylpyridine-3-carboxamide]
IC50 [1]: 3.88 ± 0.5 µM | IC50 [2]: 9.04 ± 2.84 µM | IC50 [3]: 3.07 ± 0.21 µM

The remaining compounds from weak to strong by IC50 [1], led by results:

IC50 [1]: 3.72 ± 0.54 µM | IC50 [2]: 6.33 ± 0.56 µM | IC50 [3]: 3.46 ± 0.39 µM
Compound: Cc1ccc(C=NNC(=O)Cn2nc(CNC(=O)c3c(C)cc(C)nc3S)oc2=S)cc1 [Compound 7, 4,6-Dimethyl-N-{[4-(2-(2-(4-methylbenzylidene)hydrazinyl)-2-oxoethyl)-5-sulfanylidene-4,5-dihydro-1,3,4-oxadiazole-2-yl]methyl}-2-sulfanylpyridine-3-carboxamide]

IC50 [1]: 3.72 ± 0.24 µM | IC50 [2]: 8.29 ± 4.45 µM | IC50 [3]: 3.12 ± 0.31 µM
Compound: Cc1cc(C)c(C(=O)NCc2nn(CC(=O)NN=Cc3ccc(C(F)(F)F)cc3)c(=S)o2)c(S)n1 [Compound 11, 4,6-Dimethyl-N-{[4-(2-(2-(4-trifluoromethylbenzylidene)hydrazinyl)-2-oxoethyl)-5-sulfanylidene-4,5-dihydro-1,3,4-oxadiazole-2-yl]methyl}-2-sulfanylpyridine-3-carboxamide]

IC50 [1]: 3.62 ± 0.43 µM | IC50 [2]: 6.37 ± 1.09 µM | IC50 [3]: 3.13 ± 0.17 µM
Compound: Cc1cc(C)c(C(=O)NCc2nn(CC(=O)NN=Cc3ccccc3)c(=S)o2)c(S)n1 [Compound 5, 4,6-Dimethyl-N-{[4-(2-(2-benzylidenehydrazinyl)-2-oxoethyl)-5-sulfanylidene-4,5-dihydro-1,3,4-oxadiazol-2-yl]methyl}-2-sulfanylpyridine-3-carboxamide]

IC50 [1]: 3.16 ± 0.21 µM | IC50 [2]: 7.23 ± 0.49 µM | IC50 [3]: 2.89 ± 0.08 µM
Compound: Cc1cc(C)c(C(=O)NCc2nn(CC(=O)NN=Cc3ccccc3Br)c(=S)o2)c(S)n1 [Compound 13, 4,6-Dimethyl-N-{[4-(2-(2-(2-bromobenzylidene)hydrazinyl)-2-oxoethyl)-5-sulfanylidene-4,5-dihydro-1,3,4-oxadiazole-2-yl]methyl}-2-sulfanylpyridine-3-carboxamide]
